Measured values from ChEMBL document CHEMBL1932960, “Discovery and characterization of a potent and selective antagonist of melanin-concentrating hormone receptor 2” (Bioorg Med Chem Lett, 2012).
Blank lines part the entries; values can stand above or below the molecule they belong to. Calls of active or inactive are those of the source. The rule behind the calls is not given here.

What was measured:
[1] = target: T1, Melanin-concentrating hormone receptor 2 (Homo sapiens, UniProt Q969V1); assay: Antagonist activity at human MCHR2 receptor expressed in CHO cells assessed as inhibition of MCH-stimulated Ca2+ flux preincubated for 10 mins prior to MCH-stimulation by FLIPR assay; assay type: functional, cell-based
T1 sequence (Q969V1 whole entry): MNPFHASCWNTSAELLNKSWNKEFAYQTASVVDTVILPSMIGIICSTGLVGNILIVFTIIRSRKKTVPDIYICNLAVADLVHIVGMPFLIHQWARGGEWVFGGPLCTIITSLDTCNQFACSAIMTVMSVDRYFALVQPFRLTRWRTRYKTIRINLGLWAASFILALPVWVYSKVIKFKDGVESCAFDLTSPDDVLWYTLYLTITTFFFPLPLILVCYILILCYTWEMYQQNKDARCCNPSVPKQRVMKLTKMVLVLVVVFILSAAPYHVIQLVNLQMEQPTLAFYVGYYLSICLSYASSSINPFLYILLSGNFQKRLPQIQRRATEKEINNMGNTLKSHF

[2] = Clearance in rat at 0.5 mg/kg, iv; assay type: ADME, organism-based; design: dose 0.5 mg/kg, route intravenous; settings: in vivo
[3] = Mean residence time in rat at 0.5 mg/kg, iv; assay type: ADME, organism-based; design: dose 0.5 mg/kg, route intravenous; settings: in vivo
[4] = Oral bioavailability in rat at 2 mg/kg; assay type: ADME, organism-based; settings: in vivo
[5] = target: T2, Melanin-concentrating hormone receptor 1 (Homo sapiens, UniProt Q99705); assay: Antagonist activity at MCHR1 up to 50 uM by FLIPR assay; assay type: functional
T2 sequence (Q99705 whole entry): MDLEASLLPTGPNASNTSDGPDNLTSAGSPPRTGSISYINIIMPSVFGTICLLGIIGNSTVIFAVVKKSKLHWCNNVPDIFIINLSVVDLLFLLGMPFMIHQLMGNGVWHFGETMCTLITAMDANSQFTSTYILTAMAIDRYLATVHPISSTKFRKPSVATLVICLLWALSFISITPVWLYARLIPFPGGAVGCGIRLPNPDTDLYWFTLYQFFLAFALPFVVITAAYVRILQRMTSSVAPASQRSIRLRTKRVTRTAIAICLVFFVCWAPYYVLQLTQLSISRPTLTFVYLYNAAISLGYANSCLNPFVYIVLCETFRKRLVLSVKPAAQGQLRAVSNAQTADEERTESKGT

Homo sapiens [6] = species: Homo sapiens; assay: Selectivity ratio of IC50 for serotonin transporter to IC50 for human MCHR2 receptor
[7] = Oral bioavailability in rhesus monkey at 2 mg/kg; assay type: ADME, organism-based, Macaca mulatta; settings: in vivo
[8] = Clearance in rhesus monkey; assay type: ADME, organism-based, Macaca mulatta; settings: in vivo
[9] = Mean residence time in rhesus monkey; assay type: ADME, organism-based, Macaca mulatta; settings: in vivo
[10] = target: Voltage-gated inwardly rectifying potassium channel KCNH2 (Homo sapiens, UniProt Q12809); assay: Inhibition of human ERG by rubidium [86Rb] efflux assay
Voltage-gated inwardly rectifying potassium channel KCNH2, sequence (Q12809 whole entry): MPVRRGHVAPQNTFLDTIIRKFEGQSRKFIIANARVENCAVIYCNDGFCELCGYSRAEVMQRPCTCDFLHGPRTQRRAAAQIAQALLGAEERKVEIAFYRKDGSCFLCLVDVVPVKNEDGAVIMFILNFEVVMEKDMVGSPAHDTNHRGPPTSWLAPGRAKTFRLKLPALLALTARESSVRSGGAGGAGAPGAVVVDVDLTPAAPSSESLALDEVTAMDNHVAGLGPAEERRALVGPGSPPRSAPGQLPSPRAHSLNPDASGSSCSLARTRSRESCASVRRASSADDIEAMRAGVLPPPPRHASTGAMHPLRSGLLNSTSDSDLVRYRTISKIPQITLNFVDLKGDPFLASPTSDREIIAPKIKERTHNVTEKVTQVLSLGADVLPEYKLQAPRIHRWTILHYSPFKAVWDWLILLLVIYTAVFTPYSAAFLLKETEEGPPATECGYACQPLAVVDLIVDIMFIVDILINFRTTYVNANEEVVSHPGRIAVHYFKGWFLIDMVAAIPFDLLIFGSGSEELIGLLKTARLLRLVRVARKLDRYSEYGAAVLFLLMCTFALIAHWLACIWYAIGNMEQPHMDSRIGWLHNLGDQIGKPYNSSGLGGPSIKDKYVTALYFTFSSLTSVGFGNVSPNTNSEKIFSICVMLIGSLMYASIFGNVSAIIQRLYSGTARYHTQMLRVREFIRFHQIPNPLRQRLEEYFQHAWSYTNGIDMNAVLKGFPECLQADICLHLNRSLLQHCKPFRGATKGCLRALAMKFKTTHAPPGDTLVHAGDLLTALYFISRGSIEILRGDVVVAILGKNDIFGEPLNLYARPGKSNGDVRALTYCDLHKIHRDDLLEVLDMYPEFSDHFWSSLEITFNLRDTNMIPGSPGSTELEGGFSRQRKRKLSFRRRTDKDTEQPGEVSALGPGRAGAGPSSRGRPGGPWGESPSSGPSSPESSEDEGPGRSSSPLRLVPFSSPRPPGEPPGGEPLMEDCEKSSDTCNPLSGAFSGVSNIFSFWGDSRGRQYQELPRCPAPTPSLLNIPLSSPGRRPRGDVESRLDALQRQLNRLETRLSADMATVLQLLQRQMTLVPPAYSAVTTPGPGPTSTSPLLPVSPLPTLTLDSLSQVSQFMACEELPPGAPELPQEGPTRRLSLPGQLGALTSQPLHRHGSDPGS

[11] = target: Sodium-dependent serotonin transporter (Homo sapiens, UniProt P31645); assay: Inhibition of serotonin transporter
Sodium-dependent serotonin transporter, sequence (P31645 whole entry): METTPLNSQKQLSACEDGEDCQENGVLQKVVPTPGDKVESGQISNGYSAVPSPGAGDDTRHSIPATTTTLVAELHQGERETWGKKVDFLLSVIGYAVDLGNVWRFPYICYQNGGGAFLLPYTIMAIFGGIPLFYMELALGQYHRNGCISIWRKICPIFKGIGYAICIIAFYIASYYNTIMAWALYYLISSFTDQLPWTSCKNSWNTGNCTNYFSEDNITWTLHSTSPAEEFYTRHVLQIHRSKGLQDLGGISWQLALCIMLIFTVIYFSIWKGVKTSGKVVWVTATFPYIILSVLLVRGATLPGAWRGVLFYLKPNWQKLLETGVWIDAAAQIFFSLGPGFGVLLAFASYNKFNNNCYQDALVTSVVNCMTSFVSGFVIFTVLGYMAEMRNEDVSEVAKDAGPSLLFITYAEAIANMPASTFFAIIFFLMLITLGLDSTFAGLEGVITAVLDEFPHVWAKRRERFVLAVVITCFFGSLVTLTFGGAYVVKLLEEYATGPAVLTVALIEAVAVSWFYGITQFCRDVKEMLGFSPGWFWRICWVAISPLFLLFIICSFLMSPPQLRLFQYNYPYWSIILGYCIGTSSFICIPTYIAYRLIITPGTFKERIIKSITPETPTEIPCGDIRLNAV

[12] = Mean residence time in Beagle dog; assay type: ADME, organism-based, Canis lupus familiaris; settings: in vivo
[13] = target: T1, Melanin-concentrating hormone receptor 2; assay: Displacement of [3H]N-(1'-((9-ethyl-9H-carbazol-3-yl)methyl)-2,3-dihydrospiro[indene-1,4'-piperidine]-3-yl)acetamide from human MCHR2 expressed in HEK293 cells after 2 hrs; assay type: cell-based
D(2) dopamine receptor = D(2) dopamine receptor (Homo sapiens, UniProt P14416); assay: Inhibition of dopamine D2 receptor
D(2) dopamine receptor, sequence (P14416 whole entry): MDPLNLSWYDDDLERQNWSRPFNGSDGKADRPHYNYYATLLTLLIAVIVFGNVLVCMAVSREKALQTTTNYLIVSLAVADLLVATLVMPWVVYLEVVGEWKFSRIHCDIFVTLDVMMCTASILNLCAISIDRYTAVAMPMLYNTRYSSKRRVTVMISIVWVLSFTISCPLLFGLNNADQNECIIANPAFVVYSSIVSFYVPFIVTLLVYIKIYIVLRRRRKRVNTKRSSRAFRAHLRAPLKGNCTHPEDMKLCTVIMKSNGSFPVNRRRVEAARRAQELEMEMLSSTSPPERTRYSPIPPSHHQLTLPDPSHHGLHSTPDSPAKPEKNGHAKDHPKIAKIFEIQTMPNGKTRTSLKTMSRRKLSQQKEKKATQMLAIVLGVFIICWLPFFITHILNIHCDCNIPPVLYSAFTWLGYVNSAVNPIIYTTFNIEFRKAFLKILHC

[14] = target: T2, Melanin-concentrating hormone receptor 1; assay: Binding affinity to MCHR1 up to 10 uM
Homo sapiens [15] = species: Homo sapiens; assay: Selectivity ratio of IC50 for dopamine D2 receptor to IC50 for human MCHR2 receptor
[16] = Oral bioavailability in Beagle dog at 2 mg/kg; assay type: ADME, organism-based, Canis lupus familiaris; settings: in vivo
[17] = Clearance in Beagle dog; assay type: ADME, organism-based, Canis lupus familiaris; settings: in vivo
[18] = target: T2, Melanin-concentrating hormone receptor 1; assay: Antagonist activity at MCHR1 by FLIPR assay; assay type: functional

IC50 [1]: 250 nM
Compound: CCn1c2ccccc2c2cc(CN3CCC4(CC3)c3ccccc3CC4NC(C)=O)ccc21 (racemic)

IC50 [1]: 0.1 nM
Compound: CCn1c2ccccc2c2cc(CN3CCC4(CC3)CC(NC(C)=O)c3ccccc34)ccc21 (racemic)

IC50 [1]: 15000 nM
Compound: CCn1c2ccccc2c2cc(CCCN3CCC4(C=Cc5ccccc54)CC3)ccc21

IC50 [1]: 150 nM
Compound: CCn1c2ccccc2c2cc(CN3CCC4(CC3)c3ccccc3[C@H](O)[C@H]4O)ccc21 (racemic)

IC50 [1]: 8 nM
Compound: CC(=O)N[C@H]1c2ccccc2C2(CCN(Cc3ccc4[nH]c5ccccc5c4c3)CC2)[C@@H]1O (racemic)

clearance [2]: 20 mL/min/kg
IC50 [1]: 0.1 nM
MRT [3]: 18.2 h
bioavailability [4]: 7.5%
Compound: CC(=O)N[C@@H]1CC2(CCN(Cc3ccc4[nH]c5ccccc5c4c3)CC2)c2ccccc21

IC50 [1]: 13 nM
Compound: CC(=O)N[C@H]1CC2(CCN(Cc3ccc4[nH]c5ccccc5c4c3)CC2)c2ccccc21

clearance [2]: 36.7 mL/min/kg
IC50 [1]: 100 nM
MRT [3]: 14.2 h
bioavailability [4]: 9%
Compound: CCn1c2ccccc2c2cc(CN3CCC4(CC3)c3ccccc3[C@H](NC(C)=O)[C@H]4O)ccc21 (racemic)

IC50 [1]: 60000 nM
Compound: CCn1c2ccccc2c2cc(NC(=O)N3CCC4(C=Cc5ccccc54)CC3)ccc21

IC50 [1]: 30 nM
Compound: CCn1c2ccccc2c2cc(CN3CCC4(CC3)c3ccccc3CC4O)ccc21 (racemic)

IC50 [1]: 70 nM
Compound: CC(=O)n1c2ccccc2c2cc(CN3CCC4(C=Cc5ccccc54)CC3)ccc21

IC50 [1]: 200 nM
Compound: CCn1c2ccccc2c2cc(CN3CCC4(CC3)CC(O)c3ccccc34)ccc21 (racemic)

IC50 [1]: 1000 nM
IC50 [18]: 20000 nM
Compound: CCn1c2ccccc2c2cc(CN3CCC4(C=Cc5ccccc54)CC3)ccc21

IC50 [1]: 250 nM
Compound: CCn1c2ccccc2c2cc(CN3CCC4(CC3)c3ccccc3[C@H](O)[C@@H]4O)ccc21 (racemic)

clearance [2]: 13.3 mL/min/kg
IC50 [1]: 1 nM
IC50 [11]: 100 nM
MRT [3]: 9.2 h
IC50 (D(2) dopamine receptor): 500 nM
bioavailability [4]: 49%
Compound: CC(=O)N[C@@H]1CC2(CCN(Cc3ccc4[nH]c5ccc(Cl)cc5c4c3)CC2)c2ccccc21

More lines, now with the values behind:

Compound: COC(=O)n1c2ccccc2c2cc(CN3CCC4(C=Cc5ccccc54)CC3)ccc21
IC50 [1]: 300 nM

Compound: NC(=O)n1c2ccccc2c2cc(CN3CCC4(C=Cc5ccccc54)CC3)ccc21
IC50 [1]: 4 nM

Compound: CCC(=O)n1c2ccccc2c2cc(CN3CCC4(C=Cc5ccccc54)CC3)ccc21
IC50 [1]: 100 nM

Compound: O[C@H]1Cc2ccccc2C12CCN(Cc1ccc3[nH]c4ccccc4c3c1)CC2
IC50 [1]: 80 nM

Compound: CC(=O)N[C@@H]1CC2(CCN(Cc3ccc4c(c3)c3ccccc3n4C(N)=O)CC2)c2ccccc21
Activity [5]: inactive
Ratio IC50 (Homo sapiens [6]): > 500
clearance [2]: 16.7 mL/min/kg
bioavailability [7]: 47%
IC50 [1]: 1 nM
clearance [8]: 10 mL/min/kg
MRT [9]: 6.1 h
IC50 [10]: 2000 nM
IC50 [11]: 10000 nM
MRT [12]: 11 h
Ki [13]: 13 nM
MRT [3]: 18 h
IC50 (D(2) dopamine receptor): 1500 nM
Activity [14]: inactive
Ratio IC50 (Homo sapiens [15]): > 500
bioavailability [4]: 37%
bioavailability [16]: 73%
clearance [17]: 10 mL/min/kg

Compound: C1=CC2(CCN(Cc3ccc4[nH]c5ccccc5c4c3)CC2)c2ccccc21
IC50 [1]: 100 nM

Compound: O[C@@H]1Cc2ccccc2C12CCN(Cc1ccc3[nH]c4ccccc4c3c1)CC2
clearance [2]: 145 mL/min/kg
IC50 [1]: 10 nM
MRT [3]: 2.8 h
bioavailability [4]: 5.9%

Compound: CN(C)C(=O)n1c2ccccc2c2cc(CN3CCC4(C=Cc5ccccc54)CC3)ccc21
IC50 [1]: 4 nM

Compound: CCn1c2ccccc2c2cc(C(=O)N3CCC4(C=Cc5ccccc54)CC3)ccc21
IC50 [1]: 60000 nM

Compound: CC(=O)N[C@@H]1CC2(CCN(Cc3ccc4[nH]c5ccc(C(F)(F)F)cc5c4c3)CC2)c2ccccc21
IC50 [1]: 678 nM

Compound: CC(=O)N[C@@H]1CC2(CCN(Cc3ccc4[nH]c5ccc(Br)cc5c4c3)CC2)c2ccccc21
IC50 [1]: 10 nM

Compound: CC(=O)N[C@@H]1CC2(CCN(Cc3ccc4[nH]c5ccc(F)cc5c4c3)CC2)c2ccccc21
IC50 [1]: 10 nM

Compound: CCn1c2ccccc2c2cc(CCN3CCC4(C=Cc5ccccc54)CC3)ccc21
IC50 [1]: 10000 nM

Compound: CS(=O)(=O)n1c2ccccc2c2cc(CN3CCC4(C=Cc5ccccc54)CC3)ccc21
IC50 [1]: 200 nM
